In US20050197372A1 (priority 2002, published 2005):

Key:
[1] = system: glycoprotein Ib (GPIb, CD42b); assay: Whole blood flow cytometry, GP Ib expression; type: cell-based, human; conditions: for Expression of glycoprotein Ib (GPIb, CD42b): baseline 246.4 ± 26.7
Procedure: (§1) None of them received aspirin or any other anti-platelet agents. All subjects underwent blood sampling after at least 30 minutes of rest and 2 or more hours of fasting. Blood was drawn between 8 and 10 a.m. in order to avoid any diurnal influence and sampled from an antecubital vein using a 21-gauge butterfly needle containing 3.8% sodium citrate (1:9 volume) after having discarded the first 1.5 ml of free running blood. Eleven Vacutainer tubes (4.5 ml) were collected for a total of 49 ml of whole blood-citrate mixture from each study participant. One tube was kept as an internal control and was incubated with buffer solution. […] To avoid possible observer bias, blood samples were coded and blinded. Sampling procedures, and platelet studies were performed by individuals unaware of the protocol.
(§2) The expression of platelet receptors was determined by using the following monoclonal antibodies: CD31 (platelet endothelial cell adhesion molecule (PECAM-1), CD41 (glycoprotein [GP] IIb/IIIa, (IIb (3), CD42b (GP Ib), CD 51/CD61 ((v (3, or vitronectin receptor), CD62p (P-selectin), CD107a (lysosome associated membrane protein-1; LAMP-1), CD 107b (LAMP-2), CD151 (platelet/endothelial tetraspan antigen-3; PETA-3), and PAC-1 for fibrinogen-platelet (PharMingen, San Diego, Calif.). Platelet-leukocyte interactions were assessed by using dual antibodies for a pan-platelet marker (CD 151), together with CD14, a monocyte/macrophage marker. The blood-citrate mixture (50 μl) was diluted with 450 μl Tris buffered saline (TBS) (10 mmol/L Tris, 0.15 mol/L sodium chloride) and mixed by gently inverting an Eppendorf tube 2 times. Five μl of the corresponding antibodies were then added to each solution and the samples were incubated for 30 minutes. After incubation, 400 μl of 2% buffered paraformaldehyde was added for fixation. The samples were analyzed by a Becton Dickinson FACScan flow cytometer set up to measure fluorescent light scatter, as described in Gurbel P A, et al., J Am Coll Cardiol. 1998; 31: 1466-1473. The data were collected in list mode files and then analyzed. P selectin was expressed as percent positive cells as described in Gurbel P A, et al, Am Heart J 2000; 139: 320-328. Other antigens were expressed as log mean fluorescence intensity.

[2] = system: platelet/endothelial cell adhesion molecule-1 (PECAM-1, CD31); assay: Whole blood flow cytometry, PECAM-1 expression; type: cell-based, human; conditions: for Expression of platelet/endothelial cell adhesion molecule-1 (PECAM-1, CD31): baseline 69.2 ± 10.3
Procedure: as §1, §2

[3] = system: platelet vitronectin receptor (CD51/CD61); assay: Whole blood flow cytometry, vitronectin receptor expression; type: cell-based, human; conditions: for Expression of platelet vitronectin receptor (CD51/CD61): baseline 11.2 ± 4.6
Procedure: as §1, §2

[4] = system: human platelets (platelet-rich plasma); assay: Platelet-rich plasma aggregation induced by 5 μM epinephrine; type: cell-based; conditions: for Platelet rich plasma platelet aggregation induced by 5 μM epinephrine: 60 minutes at 37° C., baseline 78 ± 10
Procedure: as §1
The citrate and whole blood mixture were centrifuged at 1200 g for 5 minutes in order to obtain platelet-rich plasma (PRP) which was kept at room temperature for use within 1 hour. Platelet counts were determined for each PRP sample with a Coulter Counter ZM (Coulter Co., Hialeah, Fla.). Platelet numbers were adjusted to 3.50×10 ^8/ml with homologous platelet-poor plasma. Platelet aggregation (PA) was induced by 5 μM ADP, and 5 μM epinephrine. All agonists were obtained from Chronolog Corporation (Havertown, Pa.). Aggregation studies were performed using a 4 channel Chronolog Lumi-Aggregometer (model 560-Ca). Aggregation was expressed as the maximum percentage of light transmittance change (% max) from the baseline at the end of the recording time, using platelet-poor plasma as a reference. Aggregation curves were recorded for 6 minutes and analyzed according to internationally established standards. Ruggeri Z M, Semin Hemat 1994; 31: 229-239.

[5] = system: platelet/endothelial tetraspan antigen -3 (PETA-3, CD151); assay: Whole blood flow cytometry, PETA-3 expression; type: cell-based, human; conditions: for Expression of platelet/endothelial tetraspan antigen -3 (PETA-3, CD151): baseline 88.7 ± 24.2
Procedure: as §1, §2

[6] = system: lysosome associated membrane protein -2 (LAMP-2, CD107b); assay: Whole blood flow cytometry, LAMP-2 expression; type: cell-based, human; conditions: for Expression of lysosome associated membrane protein -2 (LAMP-2, CD107b): baseline 6.6 ± 2.1
Procedure: as §1, §2

[7] = system: platelet glycoprotein IIb/IIIa antigen (GPIIb, CD41); assay: Whole blood flow cytometry, GP IIb/IIIa antigen expression; type: cell-based, human; conditions: for Expression of platelet glycoprotein IIb/IIIa antigen (GPIIb, CD41): baseline 521.8 ± 98.2
Procedure: as §1, §2

[8] = patients undergoing valsartan therapy; cited from earlier work
[9] = system: Glycoprotein IIb/IIIa activity (fibrinogen binding, PAC-1); assay: Whole blood flow cytometry, GP IIb/IIIa activity (PAC-1); type: cell-based, human; conditions: for Glycoprotein IIb/IIIa activity (fibrinogen binding, PAC-1): baseline 10.3 ± 2.8
Procedure: as §1, §2

## CC(O)CCC(=O)N(Cc1ccc(-c2ccccc2-c2nnn[nH]2)cc1)[C@H](C(=O)O)C(C)C (stereo partly drawn) [Valeryl 4-hydroxy valsartan, (S)-2{(4-Hydroxy-pentanoyl)-[2′-(1H-tetrazol-5-yl)-biphenyl-4-ylmethyl]amino}-3-methyl-butyric Acid]
[1]; drug 10 nM
  Expression of glycoprotein Ib (GPIb, CD42b): 236.4 ± 18.7 log MFI
[1]; drug 100 nM
  Expression of glycoprotein Ib (GPIb, CD42b): 267.9 ± 39.4 log MFI
[1]; drug 1 μM
  Expression of glycoprotein Ib (GPIb, CD42b): 255.5 ± 24.8 log MFI
[1]; drug 10 μM
  Expression of glycoprotein Ib (GPIb, CD42b): 249.7 ± 41.8 log MFI
[1]; drug 100 μM
  Expression of glycoprotein Ib (GPIb, CD42b): 248.1 ± 19.5 log MFI
[1]; whole blood flow cytometry
  Effect on GP Ib (CD42) (in words): not associated with any effect
[2]; drug 10 nM
  Expression of platelet/endothelial cell adhesion molecule-1 (PECAM-1, CD31): 74.2 ± 13.4 log MFI
[2]; drug 100 nM
  Expression of platelet/endothelial cell adhesion molecule-1 (PECAM-1, CD31): 69.7 ± 15.1 log MFI
[2]; drug 1 μM
  Expression of platelet/endothelial cell adhesion molecule-1 (PECAM-1, CD31): 70.3 ± 16.4 log MFI
[2]; drug 10 μM
  Expression of platelet/endothelial cell adhesion molecule-1 (PECAM-1, CD31): 73.1 ± 9.3 log MFI
[2]; drug 100 μM
  Expression of platelet/endothelial cell adhesion molecule-1 (PECAM-1, CD31): 71.2 ± 15.5 log MFI
[2]; whole blood flow cytometry
  Effect on PECAM-1 (CD31) (in words): not associated with any effect
[3]; drug 10 nM
  Expression of platelet vitronectin receptor (CD51/CD61): 12.1 ± 4.2 log MFI
[3]; drug 100 nM
  Expression of platelet vitronectin receptor (CD51/CD61): 8.5 ± 3.1 log MFI
[3]; drug 1 μM
  Expression of platelet vitronectin receptor (CD51/CD61): 8.1 ± 3.8 log MFI
[3]; drug 10 μM
  Expression of platelet vitronectin receptor (CD51/CD61): 7.2 ± 5.6 log MFI
[3]; drug 100 μM
  Expression of platelet vitronectin receptor (CD51/CD61): 7.6 ± 3.3 log MFI
[3]; whole blood flow cytometry
  Effect on expression of vitronectin receptors (in words): moderately reduced
[4]; PRP, 5 μM epinephrine, preincubation with escalating doses 10 nM to 100 μM
  Effect on epinephrine-induced platelet aggregation (in words): inhibited epinephrine-induced aggregation in concentration 1 μM and 10 μM
[4]; drug 10 nM
  Platelet rich plasma platelet aggregation induced by 5 μM epinephrine: 77 ± 10%
[4]; drug 100 nM
  Platelet rich plasma platelet aggregation induced by 5 μM epinephrine: 76 ± 9%
[4]; drug 1 μM
  Platelet rich plasma platelet aggregation induced by 5 μM epinephrine: 54 ± 11%
[4]; drug 10 μM
  Platelet rich plasma platelet aggregation induced by 5 μM epinephrine: 56 ± 13%
[4]; drug 100 μM
  Platelet rich plasma platelet aggregation induced by 5 μM epinephrine: 52 ± 9%
[4]; one study patient, incubation with 1 μM
  Effect on epinephrine-induced aggregation, FIG. 1 aggregation curves (in words): blocks epinephrine-induced aggregation
[5]; drug 10 nM
  Expression of platelet/endothelial tetraspan antigen -3 (PETA-3, CD151): 89.4 ± 18.2 log MFI
[5]; drug 100 nM
  Expression of platelet/endothelial tetraspan antigen -3 (PETA-3, CD151): 92.7 ± 22.2 log MFI
[5]; drug 1 μM
  Expression of platelet/endothelial tetraspan antigen -3 (PETA-3, CD151): 90.5 ± 15.7 log MFI
[5]; drug 10 μM
  Expression of platelet/endothelial tetraspan antigen -3 (PETA-3, CD151): 84.2 ± 31.1 log MFI
[5]; drug 100 μM
  Expression of platelet/endothelial tetraspan antigen -3 (PETA-3, CD151): 93.4 ± 27.4 log MFI
[5]; whole blood flow cytometry
  Effect on PETA-3 (CD151) (in words): not associated with any effect
[6]; drug 10 nM
  Expression of lysosome associated membrane protein -2 (LAMP-2, CD107b): 7.7 ± 3.8 log MFI
[6]; drug 100 nM
  Expression of lysosome associated membrane protein -2 (LAMP-2, CD107b): 7.0 ± 3.0 log MFI
[6]; drug 1 μM
  Expression of lysosome associated membrane protein -2 (LAMP-2, CD107b): 6.6 ± 3.4 log MFI
[6]; drug 10 μM
  Expression of lysosome associated membrane protein -2 (LAMP-2, CD107b): 7.2 ± 3.9 log MFI
[6]; drug 100 μM
  Expression of lysosome associated membrane protein -2 (LAMP-2, CD107b): 7.1 ± 2.9 log MFI
[6]; whole blood flow cytometry
  Effect on LAMP-2 (CD107b) (in words): not associated with any effect
[7]; drug 10 nM
  Expression of platelet glycoprotein IIb/IIIa antigen (GPIIb, CD41): 505.6 ± 77.8 log MFI
[7]; drug 100 nM
  Expression of platelet glycoprotein IIb/IIIa antigen (GPIIb, CD41): 432.7 ± 116.8 log MFI
[7]; drug 1 μM
  Expression of platelet glycoprotein IIb/IIIa antigen (GPIIb, CD41): 427.2 ± 114.1 log MFI
[7]; drug 10 μM
  Expression of platelet glycoprotein IIb/IIIa antigen (GPIIb, CD41): 515.9 ± 156.2 log MFI
[7]; drug 100 μM
  Expression of platelet glycoprotein IIb/IIIa antigen (GPIIb, CD41): 529.3 ± 121.8 log MFI
[7]; whole blood flow cytometry
  Effect on expression of GP IIb/IIIa (CD 41) (in words): slightly reduced
[8]
  Level in plasma as share of valsartan levels: 10%
[9]; drug 10 nM
  Glycoprotein IIb/IIIa activity (fibrinogen binding, PAC-1): 11.0 ± 4.5 log MFI
[9]; drug 100 nM
  Glycoprotein IIb/IIIa activity (fibrinogen binding, PAC-1): 9.0 ± 3.3 log MFI
[9]; drug 1 μM
  Glycoprotein IIb/IIIa activity (fibrinogen binding, PAC-1): 6.7 ± 2.7 log MFI
[9]; drug 10 μM
  Glycoprotein IIb/IIIa activity (fibrinogen binding, PAC-1): 7.5 ± 3.1 log MFI
[9]; drug 100 μM
  Glycoprotein IIb/IIIa activity (fibrinogen binding, PAC-1): 9.9 ± 3.0 log MFI
[9]; whole blood flow cytometry
  Effect on fibrinogen binding (PAC-1) (in words): slightly reduced
